In paper PMC8911826, “Design of Oligourea-Based Foldamers with Antibacterial and Antifungal Activities” (Molecules, 2022):
≈ marks a conversion by molar mass, not a printed value. Read-outs that look alike come from different tables or passages of the source. Marks after values point to notes of the source that are not given here.

Experiments:
[1] = test system: S. aureus ATCC 25923; assay type: cell-based, Staphylococcus aureus
Protocol: (§1) Staphylococcus aureus (S. aureus, ATCC 25923), Staphylococcus aureus S1 Methicillin Resistant (MRSA; this strain was kindly provided by Dr Gilles Prévost, University of Strasbourg), Escherichia coli (E. coli, ATCC 25922), and Pseudomonas aeruginosa (P. aeruginosa, ATCC 27853) strains were used to assess the antibacterial properties of the samples. Bacterial strain was cultured aerobically at 37 °C in Mueller–Hinton broth (MHB) medium (Merck, Germany), pH 7.4. One colony was transferred to 10 mL of MHB medium and incubated at 37 °C for 20 h. To obtain bacteria in the mid logarithmic phase of growth, the absorbance at 620 nm of overnight culture was adjusted to 0.001, corresponding to a final density of 5 × 10^5 CFU/mL. Ninety percent of this culture was incubated with 10% of the test compound at different concentrations. The positive control was composed of 90% bacterial suspension and 10% a mixture of antibiotics (tetracycline: 10 μg/mL and cefotaxime: 0.1 μg/mL in PBS). The negative control was composed of 90% of the bacterial suspension and 10% of PBS, corresponding to our 100% growth.
(§2) In order to test the influence of serum on the minimal inhibitory concentration (MIC), we added 10% decomplemented fetal bovine serum or 50% nondecomplemented fetal bovine serum in MHB medium. After 24 h of incubation at 37 °C with shaking, the optical density at 620 nm of each well was measured. The smallest concentration for which bacterial growth is 0% corresponds to the MIC of the tested compound.

[2] = test system: P. aeruginosa ATCC 27853; assay type: cell-based, Pseudomonas aeruginosa; settings: for MIC, P. aeruginosa ATCC 27853: MHB medium pH 7.4, 24 h, 100 μL, 5 × 10^5 CFU/mL, OD 620 nm, lowest concentration with 0% growth, mean of 3 samples
Protocol: as §1, §2

[3] = test system: C. albicans ATCC 18804; experiment: Antifungal MIC assay in SAB, C. albicans; assay type: cell-based, Candida albicans
Protocol: The Candida albicans (C. albicans, ATCC 18804) strain was used to assess the antifungal properties of the samples. Briefly, C. albicans was cultured aerobically at 30 °C in Sabouraud dextrose broth (SAB) medium (Becton Dickinson, Voisins le Bretonneux, France). One colony was then transferred to 10 mL of SAB medium and incubated at 30 °C for 20 h. The absorbance at 620 nm of overnight culture was adjusted to 0.001 and the tests were performed under the same conditions as those used for bacteria, with the exception of the temperature (30 °C instead of 37 °C) and the culture medium (SAB instead of MHB).

[4] = test system: Staphylococcus aureus S1 Methicillin Resistant (MRSA); assay type: cell-based
Protocol: as §1, §2

[5] = test system: E. coli ATCC 25922; assay type: cell-based, Escherichia coli
Protocol: as §1, §2

[6] = test system: Aspergillus fumigatus 098; experiment: Antifungal assay on spores, growth evaluated by microscopy; assay type: cell-based; settings: 30 °C, 24 h without agitation, n = 3
Protocol: Aspergillus fumigatus strain (A. fumigatus, ASPFU098 from Dynamique des interactions hôte pathogène (DIHP) laboratory—EA 7292, Strasbourg) were tested to evaluate the antifungal properties of foldamers. Spores were resuspended at a concentration of 10^3 spores/mL in Sabouraud dextrose broth medium. Test samples were incubated with 90 μL of fungal spores. The suspension was incubated at 30 °C for 24 h without agitation. Fungal growth was monitored microscopically after 24 h. Media alone was used as negative control and corresponds to 100% fungal growth; voriconazole (50 μg/mL) was used as a positive control and corresponds to 100% growth inhibition.

[7] = test system: MDA-MB-231 cells; settings: 24 h
Protocol: (§3) We used the human breast cancer cell line MDA-MB-231. The cells were cultured using RPMI that was supplemented with 100 units/mL penicillin, 100 µg/mL streptomycin, and 10% of fetal calf serum (FCS from HyClone, Fischer Scientific, Illkirch, France). The MDA-MB-231 cells were plated in 48-well plates one day before the experiments were conducted. The cell confluence was around 60% the day of the assay.
The cell viability was determined on MDA-MB-231 cells by performing the MTS assay (3-(4,5-dimethylthiazol-2-yl)-5-(3-carboxymethoxyphenyl)-2-(4-sulfophenyl)-2H-tetrazolium salt) (CellTiter 96® AQueous One Solution Cell Proliferation Assay from Promega). This assay was performed using biological triplicates (same amount of foldamer were added to 3 different wells). Increasing amounts of foldamer diluted in 250 μL/well of RPMI 10% FCS were added to the cells. After 24 h of incubation, the culture medium was removed and replaced with 300 μL/well of RPMI 10% FCS containing the MTS reagent (50 μL/well). After incubation at 37 °C for 1 h and 10 min, 200 μL of medium were withdrawn and used to measure the absorbance at 490 nm (and 680 nm for background). Untreated cells were used as control (100% of cell viability).

[8] = test system: MDA-MB-231 cells
Protocol: as §3
The membrane permeabilization activity was measured as the leakage of lactate dehydrogenase (LDH) from the cells. […] Thereby, foldamers were incubated with MDA-MB-231 cells and after incubation at 37 °C for 1 h and 10 min, an aliquot (50 μL) of the supernatant of each well was used for the measurement of the LDH activity. […] The LDH release was measured using a commercially available kit (CytoTox-ONE membrane integrity assay from Promega). Untreated cells were used as control. The value of 100% LDH release was obtained by using cells treated with a lysis buffer. Absorbance was measured at 490 nm (and at 680 nm for background).

[9] = test system: S. aureus; settings: 50% bovine serum; cited from earlier work
[10] = MHB medium pH 7.4, 24 h, 37 °C, 100 μL, 5 × 10^5 CFU/mL, OD 620 nm, lowest concentration with 0% growth, mean of 3 samples
[11] = Table S2, MIC of Table 1 in μM, MHB, 24 h, 37 °C

| MIC, S. aureus 25923 ([1]; ATCC 25923, 24 h) | MIC, S. aureus ATCC 25923 [1, 10] | MIC, P. aeruginosa 27853 ([2]; ATCC 27853, 24 h) | MIC, P. aeruginosa ATCC 27853 ([2]; 37 °C) | MIC, C. albicans 18804 ([3]; ATCC 18804, 24 h) | MIC, MRSA [4, 10] | MIC, MRSA ([4]; S1 Methicillin Resistant, 24 h) | MIC, E. coli 25922 ([5]; ATCC 25922, 24 h) | MIC, E. coli ATCC 25922 [5, 10] | Molecule | also measured |
| --- | --- | --- | --- | --- | --- | --- | --- | --- | --- | --- |
| 8.5 μΜ | 12.5 µg/mL (≈ 8.49 µM) | 8.5 μΜ | 12.5 µg/mL (≈ 8.49 µM) | 6.25 µg/mL (≈ 4.25 µM) | 6.25 µg/mL (≈ 4.25 µM) | 4.25 μΜ | 4.25 μΜ | 6.25 µg/mL (≈ 4.25 µM) | CC(C)NC(=O)N[C@H](CNC(=O)N[C@@H](CCCNC(=N)N)CNC(=O)N[C@H](CNC(=O)N[C@H](CNC(=O)N[C@@H](CCCNC(=N)N)CNC(=O)N[C@H](CNC(=O)N[C@@H](CCCNC(=N)N)CNC(=O)N[C@H](CCC(N)=O)C(C)C)Cc1c[nH]c2ccccc12)C(C)C)Cc1c[nH]c2ccccc12)C(C)C [OL-5] |  |
|  |  |  |  |  |  |  |  |  | C[C@@H](c1ncncc1F)[C@](O)(Cn1cncn1)c1ccc(F)cc1F [Voriconazole, reference compound] | MIC ([6]; Aspergillus fumigatus, 098, spores in Sabouraud dextrose broth): 12.5 µg/mL (≈ 35.8 µM) |
| 8.7 μΜ | 12.5 µg/mL (≈ 8.72 µM) | 34.8 μΜ | 50 µg/mL (≈ 34.9 µM) | 12.5 µg/mL (≈ 8.72 µM) | 12.5 µg/mL (≈ 8.72 µM) | 8.7 μΜ | 8.7 μΜ | 12.5 µg/mL (≈ 8.72 µM) | CC(C)NC(=O)N[C@H](CNC(=O)N[C@H](CNC(=O)N[C@H](CNC(=O)N[C@H](CNC(=O)N[C@H](CNC(=O)N[C@H](CNC(=O)N[C@@H](CCCNC(=N)N)CNC(=O)N[C@H](CCC(N)=O)C(C)C)Cc1c[nH]c2ccccc12)Cc1c[nH]cn1)C(C)C)Cc1c[nH]c2ccccc12)Cc1c[nH]cn1)C(C)C [OL-3] | IC50, cell viability (MTS) [7]: about 50 μg/mL; LDH leakage / alteration of the membranes [8]: least cytotoxic foldamer towards mammalian cells; MIC, Aspergillus fumigatus 098 ([6]; spores in Sabouraud dextrose broth): below 50 μg/mL; MIC towards MRSA in the presence of 10% serum versus without ([4]; MHB supplemented with 10% decomplemented fetal calf serum, 24 h, 37 °C, mean of three samples): remained unaffected; Change of MIC towards MRSA in the presence of 50% serum ([4]; MHB supplemented with 50% nondecomplemented fetal calf serum, 24 h, 37 °C, mean of three samples): two to four-fold |
|  |  |  |  |  |  |  |  |  | Pexiganan | Loss of activity in the presence of serum [9]: 32 fold |
|  |  |  |  |  |  |  |  |  | CC(=O)N[C@@H](CCCNC(=N)N)C(=O)N[C@@H](Cc1c[nH]cn1)C(=O)N[C@@H](CCCNC(=N)N)C(=O)N[C@@H](Cc1c[nH]cn1)C(=O)N[C@@H](CCCNC(=N)N)C(=O)N[C@H](CNC(=O)N[C@H](CNC(=O)N[C@H](CNC(=O)N[C@H](CNC(N)=O)Cc1c[nH]c2ccccc12)C(C)C)Cc1c[nH]c2ccccc12)C(C)C [OL-7] | MIC, S. aureus ATCC 25923 ([1]; ATCC 25923, 24 h, pH 7.4): ≥ 100 µg/mL; MIC, E. coli ATCC 25922 ([5]; ATCC 25922, 24 h, pH 7.4): ≥ 100 µg/mL |
| 4.3 μΜ | 6.25 µg/mL (≈ 4.3 µM) | 17.2 μΜ | 25 µg/mL (≈ 17.2 µM) | 12.5 µg/mL (≈ 8.6 µM) | 12.5 µg/mL (≈ 8.6 µM) | 8.6 μΜ | 4.3 μΜ | 6.25 µg/mL (≈ 4.3 µM) | CC(C)NC(=O)N[C@H](CNC(=O)N[C@H](CNC(=O)N[C@H](CNC(=O)N[C@H](CNC(=O)N[C@@H](CCCNC(=N)N)CNC(=O)N[C@H](CNC(=O)N[C@@H](CCCNC(=N)N)CNC(=O)N[C@H](CCC(N)=O)C(C)C)Cc1c[nH]c2ccccc12)C(C)C)Cc1c[nH]c2ccccc12)Cc1c[nH]cn1)C(C)C [OL-2] |  |
|  |  |  |  |  |  |  |  |  | CC(=O)N[C@@H](CCCCN)C(=O)N[C@@H](Cc1c[nH]cn1)C(=O)N[C@@H](CCCCN)C(=O)N[C@@H](Cc1c[nH]cn1)C(=O)N[C@@H](CCCCN)C(=O)N[C@@H](C)CNC(=O)N[C@H](CNC(=O)N[C@@H](C)CNC(=O)N[C@H](CNC(N)=O)Cc1c[nH]c2ccccc12)Cc1c[nH]c2ccccc12 [OL-6] | MIC, S. aureus ATCC 25923 ([1]; ATCC 25923, 24 h, pH 7.4): ≥ 100 µg/mL; MIC, E. coli ATCC 25922 ([5]; ATCC 25922, 24 h, pH 7.4): ≥ 100 µg/mL |
| 9.14 μΜ | 12.5 * μg/mL | 9.14 μΜ | 12.5 µg/mL (≈ 9.14 µM) | 12.5 µg/mL (≈ 9.14 µM) | 50 µg/mL (≈ 36.6 µM) | 36.56 μΜ | 9.14 μΜ | 12.5 µg/mL (≈ 9.14 µM) | CC(C)[C@H](N)CNC(=O)N[C@H](CNC(=O)N[C@H](CNC(=O)N[C@H](CNC(=O)N[C@@H](CCCNC(=N)N)CNC(=O)N[C@H](CNC(=O)N[C@@H](CCCNC(=N)N)CNC(=O)N[C@H](CCC(N)=O)C(C)C)Cc1c[nH]c2ccccc12)C(C)C)Cc1c[nH]c2ccccc12)Cc1c[nH]cn1 [OL-1] |  |

| Molecule | MIC, S. aureus 25923 ([1]; ATCC 25923, 24 h) | MIC, S. aureus ATCC 25923 [1, 10] | MIC, P. aeruginosa 27853 ([2]; ATCC 27853, 24 h) | MIC, P. aeruginosa ATCC 27853 ([2]; 37 °C) | MIC, C. albicans 18804 ([3]; ATCC 18804, 24 h) | MIC, MRSA [4, 10] | MIC, MRSA ([4]; S1 Methicillin Resistant, 24 h) | MIC, E. coli 25922 ([5]; ATCC 25922, 24 h) | MIC, E. coli ATCC 25922 [5, 10] | also measured |
| --- | --- | --- | --- | --- | --- | --- | --- | --- | --- | --- |
| CC(C)NC(=O)N[C@@H](CCCNC(=N)N)CNC(=O)N[C@H](CNC(=O)N[C@H](CNC(=O)N[C@H](CNC(=O)N[C@H](CNC(=O)N[C@H](CNC(=O)N[C@H](CNC(=O)N[C@@H](CCCNC(=N)N)CNC(=O)N[C@H](CCC(N)=O)C(C)C)Cc1c[nH]c2ccccc12)Cc1c[nH]cn1)C(C)C)Cc1c[nH]c2ccccc12)Cc1c[nH]cn1)C(C)C [OL-4] |  | 6.25 µg/mL (≈ 3.86 µM) |  | 50 µg/mL (≈ 30.9 µM) |  | 6.25 µg/mL (≈ 3.86 µM) |  |  | 6.25 µg/mL (≈ 3.86 µM) | MIC, S. aureus 25923 [1, 11]: 3.86 μΜ; MIC, P. aeruginosa 27853 [2, 11]: 30.88 μΜ; MIC, C. albicans 18804 ([3]; Sabouraud dextrose broth (SAB), 24 h, 30 °C, 100 μL, OD 620 nm, n = 3): 12.5 µg/mL (≈ 7.72 µM); MIC, MRSA [4, 11]: 3.86 μΜ; MIC, E. coli 25922 [5, 11]: 3.86 μΜ |
